Reference: US9688722B2, “Substrates and inhibitors of prolyl oligopeptidase and methods of use” (The Board of Regents of the University of Oklahoma, priority 2012, dated 2017)
Entries after “also recorded” stand apart in the source; their conditions may differ.

Key:
[1] = molecular target: T1, FAP activity on WI-38 fibroblast surfaces (Homo sapiens, UniProt Q12884); assay: Whole cell activity assay, cleavage of C95 on WI-38 fibroblasts; type: cell-based; settings: substrate C95, inhibitor 10 μM, 1 μM or 100 nM added at two hours
T1 construct: host or cells: WI-38 fibroblasts
T1 sequence (Q12884 1-760): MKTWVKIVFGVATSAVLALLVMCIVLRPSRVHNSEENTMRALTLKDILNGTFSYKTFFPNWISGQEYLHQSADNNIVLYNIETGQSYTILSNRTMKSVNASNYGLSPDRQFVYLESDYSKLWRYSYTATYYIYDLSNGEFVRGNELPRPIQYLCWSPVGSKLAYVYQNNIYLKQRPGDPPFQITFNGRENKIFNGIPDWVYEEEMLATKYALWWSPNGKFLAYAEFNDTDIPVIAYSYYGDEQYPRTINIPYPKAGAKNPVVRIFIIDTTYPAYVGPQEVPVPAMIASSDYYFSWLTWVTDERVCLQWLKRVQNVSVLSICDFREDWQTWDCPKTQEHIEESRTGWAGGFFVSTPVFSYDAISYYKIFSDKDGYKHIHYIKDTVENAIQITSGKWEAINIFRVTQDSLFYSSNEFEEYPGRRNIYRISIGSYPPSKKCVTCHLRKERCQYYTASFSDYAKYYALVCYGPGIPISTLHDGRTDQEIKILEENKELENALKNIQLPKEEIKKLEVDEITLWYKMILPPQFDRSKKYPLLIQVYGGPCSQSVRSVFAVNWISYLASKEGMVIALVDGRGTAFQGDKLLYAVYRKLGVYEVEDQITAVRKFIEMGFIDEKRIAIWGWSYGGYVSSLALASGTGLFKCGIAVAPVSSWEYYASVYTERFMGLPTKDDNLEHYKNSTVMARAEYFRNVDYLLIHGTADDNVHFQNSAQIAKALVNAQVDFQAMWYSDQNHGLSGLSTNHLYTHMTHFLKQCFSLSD
Procedure: WI-38 fibroblasts were grown on plastic, washed once with HBSS, after which the M83 inhibitor 10 μM in HBSS was added at zero time to one set, and buffer only to the other four sets. The fluorescent substrate C95 was added to all sets of wells and Δ fluorescence/min, reflecting cleavage of C95 over time, was allowed to proceed for two hours when 10 μM, 1 μM or 100 nM of the M83 inhibitor was added to each of three sets of wells.
Whole cell activity assays: Cells were cultured in normal growth media unless otherwise stated. […] Ten μl of fluorescent substrate, C95 were added to give a final concentration of 125 μM, and fluorescence was measured with time at 360/460 nm excitation/emission wavelengths using an FL600 microplate fluorescence reader (Bio-tek Instruments). Fluorescence units were converted to FAP units/100,000 cells by using a conversion factor determined from an APCE standard curve of prolyl-specific endopeptidase activity, such that 1 FAP unit is equivalent to the fluorescence produced by 1 ng of APCE/min. Since FAP and POP cleave the C95 substrate at an equivalent rate, both FAP and POP activities are expressed as FAP units in all figures.

[2] = Aqueous solubility; type: physicochemical; settings: result in words
Procedure: The specific POP inhibitor, J94 (acetyl-Lys-Leu-Arg-(L)boroPro (Ki<100 nM)); and the substrate, C95 (acetyl-Arg-AEEA-Gly-Pro-AMC), were designed, synthesized and characterized by us as previously reported. […] The inhibitors (J94 and M83) were dissolved in Hanks Balanced Salt Solution (HBSS; Gibco) at 1 mM and stored at −20° C. The substrate (C95) was dissolved in HBSS at 2.5 mM and stored at 4° C. […] Tic-Pro-AFC, a prolyl-specific fluorescent substrate, was supplied by Vantia (Southampton, England).

- solubility in aqueous buffers [2]: soluble in aqueous buffers
Structure (SMILES): CC(=O)N[C@@H](CCCNC(=N)N)C(=O)NCCOCCOCC(=O)N[C@H](C)C(=O)N1CCC[C@H]1B(O)O [Compound M83, acetyl-Arg-AEEA-(D)Ala-(L)boroPro]
- inhibition of FAP proteolytic activity on the cell surface [1]: instantly, and essentially totally, inhibited; also recorded: instantly abolished endopeptidase activity
